# According to patent publication US20240217928A1, “HALOACETHYDRAZIDES USEFUL AS AEP INHIBITORS” (Hoffmann-La Roche Inc., priority 2021, published 2024):
# Target: T1, rhlegumain (hLGMN(V18-Y433)_VD-8xHis-S2-r) (Homo sapiens, UniProt Q99538)
# T1 construct: construct name: hLGMN(V18-Y433)_VD-8xHis-S2-r; VD linker (C); 8xHis (C); made in house
# T1 sequence (Q99538 26-323 limits assumed): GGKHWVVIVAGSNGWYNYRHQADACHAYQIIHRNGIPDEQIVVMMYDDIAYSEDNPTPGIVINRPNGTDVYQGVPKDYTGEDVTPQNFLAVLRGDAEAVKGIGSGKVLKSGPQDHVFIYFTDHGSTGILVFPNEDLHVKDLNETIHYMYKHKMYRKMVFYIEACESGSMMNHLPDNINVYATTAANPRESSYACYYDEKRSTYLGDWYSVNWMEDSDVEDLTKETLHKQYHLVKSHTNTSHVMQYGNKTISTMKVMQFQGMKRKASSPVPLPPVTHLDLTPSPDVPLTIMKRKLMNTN
# Assay: AEP activity enzymatic assay
# Type: biochemical
# Settings: not given
# Description: Prior to the assay measurements, rhlegumain (in house, construct name: hLGMN(V18-Y433)_VD-8xHis-S2-r) is activated by diluting it from 1.1 mg/ml to 0.1 mg/ml (11-fold) in activation buffer (50 mM sodium acetate, 100 mM NaCl, pH 4.0) and incubation at 37° C. for 2 h. The activated enzyme solution stock is stored at −80° C.
row,Compound,IC50
1,"NC(=O)CN(NC(=O)[C@@H]1CCCN1C(=O)C(F)(F)c1ccccc1)C(=O)CF [Example 1, 2-[(2-Fluoroacetyl)-[[(2S)-1-(2,2-Difluoro-2-Phenyl-Acetyl)Pyrrolidine-2-Carbonyl]Amino]Amino]Acetamide]",3.6 nM
2,"NC(=O)CN(NC(=O)[C@@H]1CCCN1C(=O)CCc1ccccc1)C(=O)CF [Example 2, 2-[(2-Fluoroacetyl)-[[(2S)-1-(3-Phenylpropanoyl)Pyrrolidine-2-Carbonyl]Amino]Amino]Acetamide]",72.9 nM
3,NC(=O)CN(NC(=O)[C@@H]1CCCN1C(=O)C1(c2ccccc2)CCC1)C(=O)CF [Example 3],3.6 nM
4,"NC(=O)CN(NC(=O)[C@@H]1CCCN1C(=O)C1(c2ccc(Cl)cc2)CCC1)C(=O)CF [Example 4, 2-[(2-Fluoroacetyl)-[[(2S)-1-[1-(4-Chlorophenyl)Cyclobutanecarbonyl]Pyrrolidine-2-Carbonyl]Amino]Amino]Acetamide]",1.3 nM
5,"NC(=O)CN(NC(=O)[C@@H]1CCCN1C(=O)Cc1ccccc1)C(=O)CF [Example 5, 2-[(2-Fluoroacetyl)-[[(2S)-1-(2-Phenylacetyl)Pyrrolidine-2-Carbonyl]Amino]Amino]Acetamide]",22.2 nM
6,"NC(=O)CN(NC(=O)[C@@H]1CCCN1C(=O)C1(c2ccc(Cl)cc2)CC1)C(=O)CF [Example 6, 2-[(2-Fluoroacetyl)-[[(2S)-1-[1-(4-Chlorophenyl)Cyclopropanecarbonyl]Pyrrolidine-2-Carbonyl]Amino]Amino]Acetamide]",2.7 nM
7,"NC(=O)CN(NC(=O)[C@@H]1CCCN1S(=O)(=O)c1ccccc1)C(=O)CF [Example 7, 2-[(2-Fluoroacetyl)-[[(2S)-1-(Benzenesulfonyl)Pyrrolidine-2-Carbonyl]Amino]Amino]Acetamide]",61.7 nM
8,"NC(=O)CN(NC(=O)[C@@H]1CCCN1C(=O)C1(c2ccccc2)CC1)C(=O)CF [Example 8, 2-[(2-Fluoroacetyl)-[[(2S)-1-(1-Phenylcyclopropanecarbonyl)Pyrrolidine-2-Carbonyl]Amino]Amino]Acetamide]",5 nM
9,"NC(=O)CN(NC(=O)[C@@H]1CCCN1S(=O)(=O)Cc1ccccc1)C(=O)CF [Example 9, 2-[(2-Fluoroacetyl)-[[(2S)-1-Benzylsulfonylpyrrolidine-2-Carbonyl]Amino]Amino]Acetamide]",83.6 nM
10,"NC(=O)CN(NC(=O)[C@@H]1CCCN1S(=O)(=O)CCc1ccccc1)C(=O)CF [Example 10, 2-[(2-Fluoroacetyl)-[[(2S)-1-(2-Phenylethylsulfonyl)Pyrrolidine-2-Carbonyl]Amino]Amino]Acetamide]",33.8 nM
11,"C#Cc1ccc(C2(C(=O)N3CCC[C@H]3C(=O)NN(CC(N)=O)C(=O)CF)CC2)cc1 [Example 11, 2-[(2-Fluoroacetyl)-[[(2S)-1-[1-(4-Ethynylphenyl)Cyclopropanecarbonyl]Pyrrolidine-2-Carbonyl]Amino]Amino]Acetamide]",1.2 nM
12,"C#CCOc1ccc(C2(C(=O)N3CCC[C@H]3C(=O)NN(CC(N)=O)C(=O)CF)CC2)cc1 [Example 14, 2-[(2-Fluoroacetyl)-[[(2S)-1-[1-(4-Prop-2-Ynoxyphenyl)Cyclopropanecarbonyl]Pyrrolidine-2-Carbonyl]Amino]Amino]Acetamide]",1.4 nM

# Same assay, conditions: 0.5 nM legumain, 0.5 uM Z-Ala-Ala-Asn-Rh110-(D-Pro), pH 5.8, 30 min preincubation at 25° C.; read-out: IC50 (AEP)
row,Compound,IC50
1,"COc1ccc(-c2ccc(S(=O)(=O)N3CCC[C@H]3C(=O)NN(CC(N)=O)C(=O)CF)cc2)cc1 [Example 13, 2-[(2-Fluoroacetyl)-[[(2S)-1-[4-(4-Methoxyphenyl)Phenyl]Sulfonylpyrrolidine-2-Carbonyl]Amino]Amino]Acetamide]",1.5 nM
2,"COc1ccc(-c2ccc(S(=O)(=O)N3CCC[C@H]3C(=O)NN(CC(N)=O)C(=O)CCl)cc2)cc1 [Example 17, 2-[(2-Chloroacetyl)-[[(2S)-1-[4-(4-Methoxyphenyl)Phenyl]Sulfonylpyrrolidine-2-Carbonyl]Amino]Amino]Acetamide]",0.3 nM
